Reference: PMC554093, “L-histidine inhibits production of lysophosphatidic acid by the tumor-associated cytokine, autotaxin” (Lipids in Health and Disease, 2005)

Assays:
Type in all cases: biochemical
[1] = molecular target: T1, autotaxin (ATX, NPP-2, lysophospholipase D) (Homo sapiens, UniProt Q13822); assay: LPLD activity (choline release from LPC), […] compound, about […] reduction; parameters: gene ENPP2; recombinant human ATX (vATX); conditions: read-out: % reduction at 15 mM
[2] = molecular target: T1, autotaxin (ATX, NPP-2, lysophospholipase D); assay: LPLD activity (choline release from LPC) and PDE activity (pNp-TMP) with purified recombinant ATX; parameters: gene ENPP2; recombinant human ATX (vATX), cloned from an MDA-MB-435 cell library
[3] = molecular target: T1, autotaxin (ATX, NPP-2, lysophospholipase D); assay: LPLD activity (choline release from LPC), […] compound, […] reduction; methyl on the alpha nitrogen; parameters: gene ENPP2; recombinant human ATX (vATX); conditions: read-out: % reduction at 15 mM
[4] = molecular target: T1, autotaxin (ATX, NPP-2, lysophospholipase D); assay: LPLD activity (choline release from LPC), […] compound, about […] reduction; parameters: gene ENPP2; recombinant human ATX (vATX); conditions: read-out: % reduction at 15 mM; remark: listed apart in the source
[5] = molecular target: T1, autotaxin (ATX, NPP-2, lysophospholipase D); assay: LPLD activity (choline release from LPC), […] compound, […] reduction; parameters: gene ENPP2; recombinant human ATX (vATX); conditions: read-out: % reduction at 15 mM
[6] = molecular target: T1, autotaxin (ATX, NPP-2, lysophospholipase D); assay: LPLD enzyme kinetics (choline release), Km; parameters: gene ENPP2; recombinant human ATX (vATX)

Compound: N[C@H](Cc1c[nH]cn1)C(=O)O [D-histidine]
- inhibition at 15000 µM [1]: ~75%

Compound: N[C@@H](Cc1c[nH]cn1)C(=O)O [L-histidine]
- IC50 [2]: 4 ± 1.1 mM

Compound: CN[C@@H](Cc1c[nH]cn1)C(=O)O [N-methyl histidine]
- inhibition at 15000 µM [3]: 30%

Compound: NC(=O)[C@@H](N)Cc1c[nH]cn1 [histidinamide]
- inhibition at 15000 µM [4]: ~20%

Compound: COC(=O)[C@@H](N)Cc1c[nH]cn1 [histidine methyl ester]
- inhibition at 15000 µM [5]: 65%

Compound: LPC (18:1)
- Km [6]: 490 ± 50 µM
